Patent US20130217735A1, “FUNGICIDAL COMPOSITIONS AND METHODS OF USE” (Agri-Food and BioSciences Institute, priority 2010, published 2013)
Like-named read-outs stand apart in the source and are kept apart here.

Assays:
F. sambucinum = experiment: Example 8 sensitivity testing of potato tuber pathogens to imazalil derivatives (EC50); assay type: cell-based; details: Trial B, read-out: EC50 (concentration required to reduce mycelial growth by 50%)
Method: (§1) For tests with imazalil sulphate and imazalilium docusate prepared according to Trial B, imazalil sulphate (0.5 g, drug pure, Janssen) was dissolved in sterile water (100 ml) to give a stock solution (12.7 mM). […] Dilutions (alternately five-fold and two-fold) of each of these stock solutions were prepared (in water for imazalil sulphate and in ethanol for imazalilium docusate) to produce a dilution series (12.7, 2.54, 1.27, 0.25, and 0.13 mM).
(§2) Log-probability plots of the percentage reduction in growth against the concentration were used to estimate EC50 values (the concentration required to reduce mycelial growth by 50%) (see Table 6).

Phoma exigua = experiment: as above; assay type: cell-based; details: isolate Phoma exigua 9.1; Trial B; read-out: EC50 (concentration required to reduce mycelial growth by 50%)
Method: as §1, §2

F. culmorum = experiment: as above; assay type: cell-based; details: isolate F. culmorum P13, Trial B, read-out: EC50 (concentration required to reduce mycelial growth by 50%)
Method: as §1, §2

Phoma foveata = experiment: as above; assay type: cell-based; details: isolate Phoma foveata BL2/5 T3, Trial B, read-out: EC50 (concentration required to reduce mycelial growth by 50%)
Method: as §1, §2

F. coeruleum = experiment: as above; assay type: cell-based; details: isolate F. coeruleum ex B7/06 T8; Trial B; read-out: EC50 (concentration required to reduce mycelial growth by 50%)
Method: as §1, §2

P. erythroseptica = experiment: as above; assay type: cell-based, Phytophthora erythroseptica; details: for EC50: Trial B, read-out: EC50 (concentration required to reduce mycelial growth by 50%)
Method: as §1, §2

[1] = Thermogravimetric analysis (thermal stability); assay type: physicochemical; details: TGA under nitrogen, 5° C./min
Method: Thermogravimetric analysis was performed on a Mettler Toledo Star^e TGA/DSC (Leicester, UK) under nitrogen. Samples between 5 and 10 mg were placed in open alumina pans and were heated from 25° C. to 600° C. with a heating rate of 5° C./min. Decomposition temperatures (T5% dec) were reported from onset to 5 wt % mass loss Infrared spectra were recorded as neat samples from 4000-450 cm^−1 on a Perkin-Elmer Spectrum 65 FT-IR spectrometer fitted with a Universal ATR Sampling Accessory. Differential scanning calorimetry (DSC) was performed on a Mettler Toledo Star^e DSC (Leicester, UK) under nitrogen. Samples between 5 and 10 mg were heated from 25° C. to 110° C. at a heating rate of 5° C./min followed by a 5 min isotherm. A cooling rate of 5° C./min to −70° C. was followed by a 5 min isotherm at −70° C., and the cycle was repeated twice. A melting transition was observed as single-event peak in the first run. […] Transitions above ambient temperature were confirmed optically on a Stuart SMP3 melting point apparatus.

[2] = isolate P. erythroseptica BL2/08 P31

Row | Structure (SMILES) | EC50 (F. sambucinum; Fusarium sambucinum, isolate F. sambucinum L'gall 11) [µM] | EC50 (F. sambucinum; Fusarium sambucinum, isolate F. sambucinum ex SASA, log-probability plot) [µM] | EC50 (Phoma exigua) [µM] | EC50 (F. culmorum; Fusarium culmorum) [µM] | EC50 (Phoma foveata; Boeremia foveata) [µM] | EC50 (F. coeruleum) [µM] | EC50 (P. erythroseptica; Phytophthora erythroseptica, isolate P. erythroseptica Rooster Eire) [µM] | EC50 (P. erythroseptica; [2]) [µM] | EC50 (F. sambucinum; isolate F. sambucinum L'gall 11) [µM] | EC50 (F. sambucinum; isolate F. sambucinum ex SASA, log-probability plot) [µM] | EC50 (F. culmorum) [µM] | EC50 (Phoma foveata) [µM] | T5% onset (decomposition temperature, onset to 5 wt % mass loss) [1] [°C] | activity against P. erythroseptica (P. erythroseptica; in words, Table 6) | EC50 (P. erythroseptica; isolate P. erythroseptica Rooster Eire) [µM]
1 | C=CCOC(Cn1ccnc1)c1ccc(Cl)cc1Cl (stereo not drawn) [Imazalil, imazalil, reference compound] | 1.8 | 0.7 | 5.6 | 0.4 | 2.7 | 12.9 | > 127 | > 127 | – | – | – | – | – | – | –
2 | C=CCOC(Cn1ccnc1)c1ccc(Cl)cc1Cl (stereo not drawn) [Imazalilium docusate, imazalilium docusate] | – | – | 7.3 | – | – | 19.2 | – | 38.4 | 2.6 | 1 | 0.4 | 4.6 | 208.8 | showed some activity | 100
